# Test results: patent US20210047290A1, “SPIRO COMPOUND AS INDOLEAMINE-2,3-DIOXYGENASE INHIBITOR” (SHANGHAI INSTITUTE OF ORGANIC CHEMISTRY, CHINESE ACADEMY OF …, priority 2018, published 2021)
# Biological target: T1, IDO enzyme (Homo sapiens, UniProt P14902)
# T1 construct: made in house; host or cells: E. coli BL21 (pET28a-IDO plasmid)
# Assay: IDO enzyme inhibitory activity test
# Assay type: biochemical
# Settings: recombinant IDO, D-Trp substrate, reading at 321 nm for 40 min
# Experimental: (1) Induced Expression and Purification Method of IDO Protein
# Firstly, DO gene was amplified with PCR, and the amplified PCR product was recycled. Digestion (2 h under 37° C.), gel running and recycling were carried out on the pET28a plasmid (purchased from Shanghai Baomanbio Co., Ltd.) and IDO gel with two restriction enzymes (EcoR I and Xho I). T4 ligase was connected with the product overnight, added into DH5α competence, placed on the ice for 30 min and subjected to thermal shock at 42° C. for 90 s.
# BL21 which contained pET28a-IDO plasmid was shaken vigorously at 37° C. till OD600 was 0.6-0.8, added into hemin (final concentration: 40 μM) and 0.5 mM IPTG (isopropyl-3-D-IPTG) and induced under 16° C. for 20 h; after induction, thallus were collected centrifugally at 4° C. and 6,000 rpm, washed with 50 mM PBS (pH 7.5) and collected again centrifugally.
# The collected thallus were suspended again with buffer solution (50 mM PBS pH 7.5). An appropriate amount of 100×PMSF was added. The thallus were disrupted with cell disruption instrument (1,400 bar) at 4° C. for three times. The split bacteria were centrifuged at 18,000×g for 45 min. The sediment was removed but supernatant was retained and filtered with a 0.45 μm film at 4° C.; the nickel column was balanced with lysis buffer (50 mM PBS pH7.5) by 3 column volumes.
# The supernatant was loaded on the nickel column and washed with wash solution (50 mM PBS pH7.5, 50 mM imidazole) by 4 column volume. Finally, protein was eluted with eluant (50 mM PBS pH7.5, 250 mM imidazole); dialyzed for 6 h with dialysis solution (50 mM PBS pH7.5), concentrated, sub-packaged, quickly frozen with liquid nitrogen and stored at −80° C. for backup.
# (2) Test Method for IDO Enzyme Inhibitory Activity
# Firstly, the compound was diluted by triple gradient. 1 μL of each concentration was added into a 96-well plate; 50 μL of IDO Enzyme solution PBS (pH 7.5; final concentration: 50 mM) was added: 25 μL of substrate 1 (methylene blue, final concentration: […]; catalase, final concentration: 0.2 μg/L; PBS (pH 7.5; final concentration: 50 mM) mixture and 25 μL of substrate 2 (D-Trp, final concentration: 1.5 mM; sodium ascorbate, final concentration: 20 mM; PBS (pH 7.5), final concentration 50 mM) mixture were added for starting the reaction. Finally, OOD321 nm reading was carried out for 40 min.
# T1 sequence (P14902 whole entry): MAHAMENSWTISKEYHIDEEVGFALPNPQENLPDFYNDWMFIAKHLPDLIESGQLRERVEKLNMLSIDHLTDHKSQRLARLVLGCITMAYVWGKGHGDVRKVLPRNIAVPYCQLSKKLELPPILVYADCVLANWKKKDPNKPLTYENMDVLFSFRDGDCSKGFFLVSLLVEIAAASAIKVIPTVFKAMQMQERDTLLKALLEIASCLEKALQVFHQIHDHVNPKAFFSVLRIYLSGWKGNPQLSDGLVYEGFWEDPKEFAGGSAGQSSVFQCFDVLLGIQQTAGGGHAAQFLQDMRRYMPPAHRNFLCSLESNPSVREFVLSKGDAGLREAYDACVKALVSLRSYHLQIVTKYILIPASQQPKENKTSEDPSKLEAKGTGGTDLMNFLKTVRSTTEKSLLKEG
row,IC50,Structure (SMILES)
1,1100 nM,"O=C(Nc1ccc(Cl)cc1)C1CC2(C1)CC(c1ccnc3ccccc13)C2 (racemic) [Example 1, (±)-N-(4-chlorophenyl)-6-(quinolin-4-yl)spiro[3.3]heptane-2-carboxamide]"
2,500 nM,"O=C(Nc1ccc(Cl)cc1)C1CC12CCC(c1ccnc3ccccc13)CC2 (racemic) [Example 2B, (±)-(cis/trans)-N-(4-chlorophenyl)-6-(quinolin-4-yl)spiro[2.5]octane-1-carboxamide]"
3,990 nM,"O=C(Nc1ccccc1)C1CC12CCC(c1ccnc3ccc(F)cc13)CC2 (racemic) [Example 7, (±)-(cis/trans)-6-(6-fluoroquinolin-4-yl)-N-phenylspiro[2.5]octane-1-carboxamide]"
4,3000 nM,"O=C(Nc1ccc(Cl)cc1)NC1CC12CCC(c1ccnc3ccc(F)cc13)CC2 (racemic) [Example 9, (±)-(cis/trans)-1-(4-chlorophenyl)-3-(6-(6-fluoroquinolin-4-yl)spiro[2.5]octan-1-yl)urea]"
5,6900 nM,"O=C(Nc1ccc(Cl)cc1)NC1CCC12CCC(c1ccnc3ccc(F)cc13)CC2 (racemic) [Example 11A, (±) 1-(4-chlorophenyl)-3-(7-(6-fluoroquinolin-4-yl)spiro[3.5]nonan-1-yl)urea]"
6,2700 nM,"O=C(Nc1ccc(Cl)cc1)NC1CCC12CCC(c1ccnc3ccc(F)cc13)CC2 (racemic) [Example 11B, (±) 1-(4-chlorophenyl)-3-(7-(6-fluoroquinolin-4-yl)spiro[3.5]nonan-1-yl)urea]"
7,1200 nM,"O=C(NC1CCC12CCC(c1ccnc3ccc(F)cc13)CC2)c1ccc(Cl)cc1 (racemic) [Example 12A, (±) 4-chloro-N-(7-(6-fluoroquinolin-4-yl)spiro[35]nonan-1-yl)benzamide]"
8,7600 nM,"O=C(Nc1cccc(Br)c1)C1CCC12CCC(c1ccnc3ccc(F)cc13)CC2 (racemic) [Example 14A, (±)-N-(3-bromophenyl)-7-(6-fluoroquinolin-4-yl)spiro[3.5]nonane-1-carboxamide]"
9,7000 nM,"O=C(Nc1cccc(Br)c1)C1CCC12CCC(c1ccnc3ccc(F)cc13)CC2 (racemic) [Example 14B, (±)-N-(3-bromophenyl)-7-(6-fluoroquinolin-4-yl)spiro[3.5]nonane-1-carboxamide]"
10,3200 nM,"O=C(Nc1ccc(Cl)cc1)NC1CC2(CCC(c3ccnc4ccc(F)cc34)CC2)C1 (racemic) [Example 16, (±) 1-(4-chlorophenyl)-3-(7-(6-fluoroquinolin-4-yl)spiro[3.5]nonan-2-yl)urea]"
11,480 nM,"O=C(NC1CC2(CCC(c3ccnc4ccc(F)cc34)CC2)C1)c1ccc(Cl)cc1 (racemic) [Example 17, (±) 4-chloro-N-(7-(6-fluoroquinolin-yl)spiro[3.5]nonan-2-yl)benzamide]"
12,2100 nM,"O=C(Nc1ccc(Cl)cc1)C1CCC12CCC(c1ccnc3ccc(F)cc13)CC2 (single isomer, unassigned) [Example 10B, (±) N-(4-chlorophenyl)-7-(6-fluoroquinolin-4-yl)spiro[3.5]nonane-1-carboxamide]"
13,20000 nM,"O=S(=O)(NC1CCC12CCC(c1ccnc3ccc(F)cc13)CC2)c1ccc(Cl)cc1 (single isomer, unassigned) [Example 13A, (±) 4-chloro-N-(7-(6-fluoroquinolin-4-yl)spiro[3.5]nonan-1-yl)benzenesulfonamide]"
14,157000 nM,"O=S(=O)(NC1CCC12CCC(c1ccnc3ccc(F)cc13)CC2)c1ccc(Cl)cc1 (single isomer, unassigned) [Example 13B, (±) 4-chloro-N-(7-(6-fluoroquinolin-4-ylspiro[3.5]nonan-1-yl)benzenesulfonamide]"
15,4160 nM,"O=C(Nc1ccc(Cl)cc1)C1CCC2(CC1)CC(c1ccnc3ccc(F)cc13)C2 (single isomer, unassigned) [Example 22A, N-(4-chlorophenyl)-2-(6-fluoroquinoline-4-yl)spiro[3.5]nonane-7-carboxamide]"
16,3440 nM,"O=C(Nc1ccc(Cl)cc1)C1CCC2(CC1)CC(c1ccnc3ccc(F)cc13)C2 (single isomer, unassigned) [Example 22B, N-(4-chlorophenyl)-2-(6-fluoroquinoline-4-yl)spiro[3.5]nonane-7-carboxamide]"

# Biological target: T2, IDO in Hela cells (Homo sapiens, UniProt P14902)
# T2 construct: endogenous in cells; host or cells: HeLa cells stimulated with human interferon γ
# T2 sequence (P14902 whole entry): as above
# Assay: Test of cellular activity (kynurenine formation in interferon γ stimulated Hela cells)
# Assay type: cell-based
# Settings: head prints IPS cells, method: Hela cells, 48 h incubation, read at 480 nm
# Experimental: (3) Test Method of Cellular Activity
# Hela cells (80 μL) was inoculated on a 96-well plate (5×10^3 for each well) to grow overnight. After the compound was diluted the next day, 1 μL of diluent and 100 μL of culture medium which contains human interferon γ (final concentration: 50 ng/m) were added into the 96-well plate to make the final volume reach […]. After incubating for 48 h, 80 μL of supernate was transferred from each well to a new […]. 10 μL 6.1N trichloroacetic acid was added into each well for mixing and incubation at 50° C. for 30 min, and […] N formyl-kynurenin into kynurenine. The reaction mixture was centrifuged at 2,500 rpm for 10 min, 70 μL of supernatant of each well was transferred to a new 96-well plate and mixed with 100 μL of 2% (w/v) dimethylaminobenzaldehyde acetic acid solution. After placing for 5-10 min, measurement was carried out at 480 nm with the SPECTRAmax i13 reader.
row,IC50,Structure (SMILES)
1,> 50 nM,"O=C(Nc1ccc(Cl)cc1)C1CC2(C1)CC(c1ccnc3ccccc13)C2 (racemic) [Example 1, (±)-N-(4-chlorophenyl)-6-(quinolin-4-yl)spiro[3.3]heptane-2-carboxamide]"
2,> 10 nM,"O=C(Nc1ccc(F)c(Cl)c1)C1CC2(CCC(c3ccnc4ccc(F)cc34)CC2)C1 (single isomer, unassigned) [Example 38, N-(3-chloro-4-fluorophenyl)-7-(6-fluoroquinoline-4-yl)spiro[3.5]nonane-2-carboxamide]"
3,3.05 nM,"O=C(Nc1ccc(F)c(F)c1)C1CC2(CCC(c3ccnc4ccc(F)cc34)CC2)C1 (single isomer, unassigned) [Example 40, N-(3,4-difluorophenyl)-7-(6-fluoroquinoline-4-yl)spiro[3.5]nonane-2-carboxamide]"
4,> 10 nM,"O=C(Nc1ccccc1C(F)(F)F)C1CC2(CCC(c3ccnc4ccc(F)cc34)CC2)C1 (single isomer, unassigned) [Example 41, 7-(6-fluoroquinoline-4-yl)-N-(2-(trifluoromethyl)phenyl)spiro[3.5]nonane-2-carboxamide]"
5,9.5 nM,"O=C(Nc1ccc(Cl)cn1)C1CC2(CCC(c3ccnc4ccc(F)cc34)CC2)C1 (single isomer, unassigned) [Example 42, N-(5-chloropyridine-2-yl)-7-(6-fluoroquinoline-4-yl)spiro[3.5]nonane-2-carboxamide]"
6,3.07 nM,"O=C(Nc1ccc(-c2ccccc2)cc1)C1CC2(CCC(c3ccnc4ccc(F)cc34)CC2)C1 (single isomer, unassigned) [Example 43, N-([1,1′-biphenyl]-4-yl)-7-(6-fluoroquinolin-4-yl)spiro[3.5]nonane-2-carboxamide]"
7,> 10 nM,"O=C(Nc1cccc(-c2ccccc2)c1)C1CC2(CCC(c3ccnc4ccc(F)cc34)CC2)C1 (single isomer, unassigned) [Example 44, N-([1,1′-biphenyl]-3-yl)-7-(6-fluoroquinolin-4-yl)spiro[3.5]nonane-2-carboxamide]"
8,> 10 nM,"O=C(Nc1ccc(C(F)(F)F)c(Cl)c1)C1CC2(CCC(c3ccnc4ccc(F)cc34)CC2)C1 (single isomer, unassigned) [Example 45, N-(3-chloro-4-(trifluoromethyl)phenyl)-7-(6-fluoroquinoline-4-yl)spiro[3.5]nonane-2-carboxamide]"
9,2.74 nM,"O=C(Nc1ccccc1F)C1CC2(CCC(c3ccnc4ccc(F)cc34)CC2)C1 (single isomer, unassigned) [Example 46, N-(2-fluorophenyl)-7-(6-fluoroquinoline-4-yl)spiro[3.5]nonane-2-carboxamide]"
10,> 10 nM,"O=C(Nc1ccccc1Br)C1CC2(CCC(c3ccnc4ccc(F)cc34)CC2)C1 (single isomer, unassigned) [Example 47, N-(2-bromophenyl)-7-(6-fluoroquinoline-4-yl)spiro[3.5]nonane-2-carboxamide]"
11,> 10 nM,"O=C(Nc1ccncc1)C1CC2(CCC(c3ccnc4ccc(F)cc34)CC2)C1 (single isomer, unassigned) [Example 48]"
12,1.32 nM,"N#Cc1ccc(NC(=O)C2CC3(CCC(c4ccnc5ccc(F)cc45)CC3)C2)cc1 (single isomer, unassigned) [Example 49, N-(4-cyanophenyl)-7-(6-fluoroquinolin-4-yl)spiro[3.5]nonane-2-carboxamide]"
13,> 10 nM,"O=C(Nc1cccc(C(F)(F)F)c1)C1CC2(CCC(c3ccnc4ccc(F)cc34)CC2)C1 [Example 39, (2S,4s,7S)-7-(6-fluoroquinoline-4-yl)-N-(3-(trifluoromethyl)phenyl)spiro[3.5]nonane-2-carboxamide]"
